Measured values from the supplement of paper PMC9663587.

Assays:
[1] = compound: CN(C)CC[C@H](CSc1ccccc1)Nc1ccc(S(=O)(=O)NC(=O)c2ccc(N3CCN(Cc4ccccc4-c4ccc(Cl)cc4)CC3)cc2)cc1[N+](=O)[O-] [ABT-737]
[2] = compound: CN1CCN(CCOc2cc(OC3CCOCC3)c3c(Nc4c(Cl)ccc5c4OCO5)ncnc3c2)CC1 [Saracatinib/AZD0530]
[3] = compound: T1, CN1CC[C@H](c2c(O)cc(O)c3c(=O)cc(-c4ccccc4Cl)oc23)[C@H](O)C1 [Flavopiridol]
[4] = compound: CO[C@@H](C)Cn1c(=O)n(C)c2cnc3ccc(-c4cncc(C(C)(C)O)c4)cc3c21
[5] = compound: Cc1nc(-c2cn3c(n2)-c2ccc(-c4cnn(C(C)(C)C(N)=O)c4)cc2OCC3)n(C(C)C)n1 [Taselisib/GDC0032]
[6] = compound: C=CC(=O)Nc1ccc(C(=O)Nc2[nH]nc3c2CN(C(=O)N[C@H](CN(C)C)c2ccccc2)C3(C)C)cc1 [YKL-5-124]; experiment: GR value, 72 h; higher = faster growth (1 = untreated, <0 = killing);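 also: breast cancer and non-malignant breast epithelial lines, nine half-log doses, viable cells counted by Hoechst and LIVE/DEAD dye imaging versus time-zero plates and DMSO controls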
[7] = compound: CC(=O)c1c(C)c2cnc(Nc3ccc(N4CCN(CCOCCOCCOCCNC(=O)COc5cccc6c5C(=O)N(C5CCC(=O)NC5=O)C6=O)CC4)cn3)nc2n(C2CCCC2)c1=O [BSJ-03-123]; experiment: as above
[8] = compound: CC(=O)c1c(C)c2cnc(Nc3ccc(N4CCNCC4)cn3)nc2n(C2CCCC2)c1=O; experiment: as above
[9] = compound: CCN1CCN(Cc2ccc(Nc3ncc(F)c(-c4cc(F)c5nc(C)n(C(C)C)c5c4)n3)nc2)CC1; experiment: as above
[10] = compound: CCOc1cc2ncc(C#N)c(Nc3ccc(OCc4ccccn4)c(Cl)c3)c2cc1NC(=O)/C=C/CN(C)C [Neratinib/HKI272]; experiment: as above
[11] = compound: CCc1cnn2c(NCc3ccc[n+]([O-])c3)cc(N3CCCC[C@H]3CCO)nc12; experiment: as above
[12] = compound: CN(C)C(=O)c1cc2cnc(Nc3ccc(N4CCNCC4)cn3)nc2n1C1CCCC1 [LEE011/Ribociclib]; experiment: as above
[13] = compound: CN(C)C/C=C/C(=O)Nc1ccc(C(=O)N2CCC[C@@H](Nc3ncc(Cl)c(-c4c[nH]c5ccccc45)n3)C2)cc1 [THZ531]; experiment: as above
[14] = compound: CN(C)C/C=C/C(=O)Nc1ccc(C(=O)Nc2cccc(Nc3ncc(Cl)c(-c4c[nH]c5ccccc45)n3)c2)cc1 [THZ1]; experiment: as above
[15] = compound: T1, Flavopiridol; experiment: as above
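For GR50, 72 h in this document: breast cancer and non-malignant breast epithelial cell lines, Deep Dye Drop or Dye Drop imaging, nine half-log doses, GR normalized to time-zero plates and DMSO-only controls.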

In the case of PDX1258, the “GR50, 72 h” value [1] is reported as greater than 10 µM, the “GR50, 72 h” value [2] is reported as 0.722 µM and the “GR50, 72 h” value [3] is reported as 0.0943 µM. For the same cell line, the “GR50, 72 h” value [4] was 0.0944 µM, the “GR50, 72 h” value [5] was 0.996 µM and the GR value ([6]; 0.001 µM) was 0.686 GR. For the same cell line, the GR value ([6]; 0.003162 µM) was 0.363 GR, the GR value ([6]; 0.01 µM) was 0.231 GR and the GR value ([6]; 0.03162 µM) was 0.0382 GR. It also gave a GR value ([6]; 0.1 µM) of 0.0596 GR, a GR value ([6]; 0.3162 µM) of -0.0277 GR and a GR value ([6]; 1 µM) of -0.147 GR. It also gave a GR value ([6]; 3.162 µM) of -0.294 GR, a GR value ([6]; 10 µM) of -0.519 GR and a GR value ([7]; 0.001 µM) of 1.13 GR. For the same cell line, the GR value ([7]; 0.003162 µM) was 0.919 GR, the GR value ([7]; 0.01 µM) was 1.2 GR and the GR value ([7]; 0.03162 µM) was 1.29 GR. For the same cell line, the GR value ([7]; 0.1 µM) was 1.08 GR, the GR value ([7]; 0.3162 µM) was 1.02 GR and the GR value ([7]; 1 µM) was 0.916 GR. It also gave a GR value ([7]; 3.162 µM) of 0.819 GR, a GR value ([7]; 10 µM) of -0.415 GR and a GR value ([8]; 0.0003162 µM) of 1.07 GR. For the same cell line, the GR value ([8]; 0.001 µM) was 1.08 GR, the GR value ([8]; 0.003162 µM) was 1.11 GR and the GR value ([8]; 0.01 µM) was 1.12 GR. For the same cell line, the GR value ([8]; 0.03162 µM) was 1.1 GR, the GR value ([8]; 0.1 µM) was 1.05 GR and the GR value ([8]; 0.3162 µM) was 1.09 GR. For the same cell line, the GR value ([8]; 1 µM) was 1.09 GR, the GR value ([8]; 3.162 µM) was 0.993 GR and the GR value ([9]; 0.001 µM) was 1.06 GR. For the same cell line, the GR value ([9]; 0.003162 µM) was 1.1 GR, the GR value ([9]; 0.01 µM) was 1.03 GR and the GR value ([9]; 0.03162 µM) was 0.961 GR. The GR value ([9]; 0.1 µM) was 0.911 GR, the GR value ([9]; 0.3162 µM) was 0.719 GR and the GR value ([9]; 1 µM) was 0.375 GR. For the same cell line, the GR value ([9]; 3.162 µM) was -0.0697 GR, the GR value ([9]; 10 µM) was -0.334 GR and the GR value ([10]; 0.0003162 µM) was 1.07 GR. The GR value ([10]; 0.001 µM) was 1.02 GR, the GR value ([10]; 0.003162 µM) was 1.1 GR and the GR value ([10]; 0.01 µM) was 1 GR. For the same cell line, the GR value ([10]; 0.03162 µM) was 0.938 GR, the GR value ([10]; 0.1 µM) was 0.772 GR and the GR value ([10]; 0.3162 µM) was 0.749 GR. The GR value ([10]; 1 µM) was 0.548 GR, the GR value ([10]; 3.162 µM) was 0.195 GR and the GR value ([11]; 0.0001 µM) was 1.05 GR. It also gave a GR value ([11]; 0.0003162 µM) of 1.08 GR, a GR value ([11]; 0.001 µM) of 1.13 GR and a GR value ([11]; 0.003162 µM) of 1.08 GR. It also gave a GR value ([11]; 0.01 µM) of 0.655 GR, a GR value ([11]; 0.03162 µM) of -0.491 GR and a GR value ([11]; 0.1 µM) of -0.587 GR. The GR value ([11]; 0.3162 µM) was -0.579 GR, the GR value ([11]; 1 µM) was -0.628 GR and the GR value ([12]; 0.001 µM) was 1.11 GR. The GR value ([12]; 0.003162 µM) was 1.12 GR, the GR value ([12]; 0.01 µM) was 0.914 GR and the GR value ([12]; 0.03162 µM) was 1.18 GR. For the same cell line, the GR value ([12]; 0.1 µM) was 1.19 GR, the GR value ([12]; 0.3162 µM) was 1.11 GR and the GR value ([12]; 1 µM) was 0.93 GR. It also gave a GR value ([12]; 3.162 µM) of 1.14 GR, a GR value ([12]; 10 µM) of 1.02 GR and a GR value ([13]; 0.0001 µM) of 0.889 GR. For the same cell line, the GR value ([13]; 0.0003162 µM) was 1.04 GR, the GR value ([13]; 0.001 µM) was 0.96 GR and the GR value ([13]; 0.003162 µM) was 1.07 GR. For the same cell line, the GR value ([13]; 0.01 µM) was 1.07 GR, the GR value ([13]; 0.03162 µM) was 0.765 GR and the GR value ([13]; 0.1 µM) was -0.303 GR. For the same cell line, the GR value ([13]; 0.3162 µM) was -0.601 GR, the GR value ([13]; 1 µM) was -0.509 GR and the GR value ([14]; 0.0001 µM) was 1.11 GR. The GR value ([14]; 0.0003162 µM) was 1.16 GR, the GR value ([14]; 0.001 µM) was 1.17 GR and the GR value ([14]; 0.003162 µM) was 0.923 GR. The GR value ([14]; 0.01 µM) was 0.918 GR, the GR value ([14]; 0.03162 µM) was -0.295 GR and the GR value ([14]; 0.1 µM) was -0.51 GR. For the same cell line, the GR value ([14]; 0.3162 µM) was -0.509 GR, the GR value ([14]; 1 µM) was -0.665 GR and the GR value ([15]; 0.0001 µM) was 1.03 GR. The GR value ([15]; 0.0003162 µM) was 0.973 GR, the GR value ([15]; 0.001 µM) was 1.02 GR and the GR value ([15]; 0.003162 µM) was 1.07 GR. For the same cell line, the GR value ([15]; 0.01 µM) was 1.18 GR, the GR value ([15]; 0.03162 µM) was 0.831 GR and the GR value ([15]; 0.1 µM) was 0.5 GR. It also gave a GR value ([15]; 0.3162 µM) of -0.24 GR and a GR value ([15]; 1 µM) of -0.402 GR.
